Laboratory results from patent US10975037B2 (priority 2018, dated 2021).
Counter-ions that a name gives are not always drawn. Like-named read-outs stand apart in the source and are kept apart here. Marks after values point to notes of the source that are not given here.

What was measured:
full-length human RORγt = full-length human RORγt (Homo sapiens (Human), UniProt P51449); assay: RORγt (full-length human) reporter assay, conditions A or B, HEK293T cells; assay type: cell-based; settings: for inhibition at 2 µM: 2 μM compound concentration
full-length human RORγt, sequence (P51449 other isoform, or with tags, fused parts or gaps): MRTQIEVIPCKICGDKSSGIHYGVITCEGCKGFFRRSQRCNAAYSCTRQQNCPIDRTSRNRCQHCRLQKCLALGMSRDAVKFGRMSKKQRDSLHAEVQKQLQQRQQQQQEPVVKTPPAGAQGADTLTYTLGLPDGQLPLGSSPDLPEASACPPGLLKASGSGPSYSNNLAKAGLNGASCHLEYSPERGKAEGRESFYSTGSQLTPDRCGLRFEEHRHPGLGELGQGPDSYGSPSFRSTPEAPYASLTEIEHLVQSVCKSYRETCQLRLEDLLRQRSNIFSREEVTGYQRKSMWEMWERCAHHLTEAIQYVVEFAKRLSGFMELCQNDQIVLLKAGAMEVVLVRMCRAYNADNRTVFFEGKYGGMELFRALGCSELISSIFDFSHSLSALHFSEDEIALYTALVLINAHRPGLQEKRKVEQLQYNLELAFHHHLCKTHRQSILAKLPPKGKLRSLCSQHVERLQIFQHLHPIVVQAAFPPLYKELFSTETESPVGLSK
Summary of the method: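 After 16–20 h, dual firefly/Renilla luciferase luminescence was read. Firefly signal was normalized to DMSO and saturating reference compound, then to Renilla, and fitted for IC50; % inhibition is versus DMSO.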

[1] = target: human RORγt ligand binding domain (RORγt LBD) (Homo sapiens (Human), UniProt P51449); assay: RORγt ThermoFluor® assay (thermal shift binding)
human RORγt ligand binding domain (RORγt LBD), sequence (P51449 other isoform, or with tags, fused parts or gaps): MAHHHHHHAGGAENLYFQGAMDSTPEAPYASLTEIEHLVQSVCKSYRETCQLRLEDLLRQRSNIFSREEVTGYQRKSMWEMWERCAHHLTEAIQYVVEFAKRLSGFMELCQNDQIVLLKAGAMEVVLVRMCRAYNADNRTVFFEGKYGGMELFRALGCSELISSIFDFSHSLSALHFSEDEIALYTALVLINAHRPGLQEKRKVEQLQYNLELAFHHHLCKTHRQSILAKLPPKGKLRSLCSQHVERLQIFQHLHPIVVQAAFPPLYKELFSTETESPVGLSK
Summary of the method: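 Thermal shift with 0.065 mg/mL RORγt LBD and 60 μM 1,8-ANS in 100 mM Hepes pH 7.0, 10 mM NaCl, 2.5 mM GSH, 0.002% Tween-20.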

[2] = RORγt (FL) Reporter Assay A or B, IC50, HEK293T cells
[3] = read-out: ThermoFluor® Assay, Kd
[4] = HEK-293T, read-out: RORγt (FL) Reporter Assay A or B, % inhibition
[5] = 3 μM compound concentration (footnote *)
[6] = HEK293T cells, read-out: RORγt (FL) Reporter Assay A or B, IC50
[7] = HEK-293T, 0.22 μM compound concentration (footnote *******), read-out: RORγt (FL) Reporter Assay A or B, % inhibition

SMILES: CCn1nc(C(=O)NC[C@H]2CC[C@H](S(C)(=O)=O)CC2)c(C)c1-c1ccc(CC(C(F)(F)F)C(F)(F)F)cc1OC(F)F [Example 87, 5-(2-(Difluoromethoxy)-4-(3,3,3-trifluoro-2-(trifluoromethyl)propyl)phenyl)-1-ethyl-4-methyl-N-(((1r,4r)-4-(methylsulfonyl)cyclohexyl)methyl)-1H-pyrazole-3-carboxamide]
- inhibition at 0.07 µM (full-length human RORγt; HEK-293T, 0.07 μM compound concentration (footnote *********), read-out: RORγt (FL) Reporter Assay A or B, % inhibition): 100%
- IC50 (full-length human RORγt; [2]): 3 nM
- Kd [1, 3]: 0.14 nM

SMILES: CCn1nc(C(=O)NC[C@H]2CC[C@H](S(C)(=O)=O)CC2)c(C(C)C)c1-c1ccc(N[C@H](C)C(F)(F)F)cc1OC [Example 131, 1-Ethyl-4-isopropyl-5-(2-methoxy-4-(((R)-1,1,1-trifluoropropan-2-yl)amino)phenyl)-N-(((1r,4R)-4-(methylsulfonyl)cyclohexyl)methyl)-1H-pyrazole-3-carboxamide]
- inhibition at 2 µM (full-length human RORγt; [4]): 100%
- IC50 (full-length human RORγt; [2]): 140 nM
- Kd [1, 3]: 33 nM

SMILES: Cn1nc(C(=O)NC[C@]2(O)CC[C@@H](S(C)(=O)=O)C[C@H]2O)c(Cl)c1-c1ccc(CCCC(F)(F)F)cc1OC(F)F (stereo in doubt) [Example 160, 4-Chloro-5-(2-(difluoromethoxy)-4-(4,4,4-trifluorobutyl)phenyl)-N-(((1R*,2R*,4R*)-1,2-dihydroxy-4-(methylsulfonyl)cyclohexyl)methyl)-1-methyl-1H-pyrazole-3-carboxamide]
- inhibition at 3 µM (full-length human RORγt; HEK-293T, 3 μM compound concentration (footnote *), read-out: RORγt (FL) Reporter Assay A or B, % inhibition): 96%
- IC50 (full-length human RORγt; [2]): 27 nM
- Kd ([1]; ThermoFluor® Assay, Kd): 39 nM

SMILES: CCn1nc(C(=O)NC[C@]2(CO)CC[C@@H](S(C)(=O)=O)CC2)c(Cl)c1-c1ccc(N[C@H](C)C(F)(F)F)cc1OC (relative stereo) [Example 93, 4-Chloro-1-ethyl-N-(((1s*,4S*)-1-(hydroxymethyl)-4-(methylsulfonyl)cyclohexyl)methyl)-5-(2-methoxy-4-(((R)-1,1,1-trifluoropropan-2-yl)amino)phenyl)-1H-pyrazole-3-carboxamide]
- inhibition at 2 µM (full-length human RORγt; [4]): 96%
- IC50 (full-length human RORγt; [2]): 30 nM
- Kd ([1]; ThermoFluor® Assay, Kd): 11 nM

SMILES: CCC(=O)NS(=O)(=O)[C@H]1CC[C@H](CNC(=O)c2nn(CC)c(-c3ccc(CC(C)(C)C(F)(F)F)cc3OC(F)F)c2Cl)CC1 [Example 70, 4-Chloro-5-(2-(difluoromethoxy)-4-(3,3,3-trifluoro-2,2-dimethylpropyl)phenyl)-1-ethyl-N-(((r,4r)-4-(N-propionylsulfamoyl)cyclohexyl)methyl)-1H-pyrazole-3-carboxamide]
- RORγt (FL) Reporter Assay A or B, % inhibition (full-length human RORγt; [5]): 103* %
- IC50 (full-length human RORγt; [6]): 23 nM
- Kd [1, 3]: 0.72 nM

SMILES: CCn1nc(C(=O)NC[C@H]2CC[C@H](S(C)(=O)=O)CC2)c(Cl)c1-c1ccc(NC(C(F)(F)F)C(F)(F)F)cc1OC [Example 216, 4-Chloro-1-ethyl-5-(4-((1,1,1,3,33-hexafluoropropan-2-yl)amino)-2-methoxyphenyl)-N-(((1r,4r)-4-(methylsulfonyl)cyclohexyl)methyl)-1H-pyrazole-3-carboxamide]
- inhibition at 2 µM (full-length human RORγt; [4]): 107%
- IC50 (full-length human RORγt; [2]): 28 nM
- Kd [1, 3]: 0.97 nM

SMILES: COc1cc(CC(C)C(F)(F)F)ccc1-c1c(Cl)c(C(=O)NC[C@H]2CC[C@H](S(C)(=O)=O)CC2)nn1CCO (stereo partly drawn) [Example 200, 4-Chloro-1-(2-hydroxyethyl)-5-(2-methoxy-4-(3,3,3-trifluoro-2-methylpropyl)phenyl)-N-(((1r,4r)-4-(methylsulfonyl)cyclohexyl)methyl)-1H-pyrazole-3-carboxamide]
- inhibition at 2 µM (full-length human RORγt; [4]): 96%
- IC50 (full-length human RORγt; [2]): 78 nM
- Kd [1, 3]: 13 nM

SMILES: CCn1nc(C(=O)NCC2(N)CCC(S(C)(=O)=O)CC2)c(Cl)c1-c1ccc(CC(C)C(F)(F)F)cc1OC (stereo not drawn) [Example 128, N-((1-Amino-4-(methylsulfonyl)cyclohexyl)methyl)-4-chloro-1-ethyl-5-(2-methoxy-4-(3,3,3-trifluoro-2-methylpropyl)phenyl)-1H-pyrazole-3-carboxamide]
- inhibition at 2 µM (full-length human RORγt; [4]): 63%
- IC50 (full-length human RORγt; [2]): 850 nM
- Kd [1, 3]: 140 nM

SMILES: CCn1nc(C(=O)NC[C@]2(O)CC[C@@H](S(C)(=O)=O)CC2)c(Cl)c1-c1ccc(CC(C)(C)C(F)(F)F)cc1C#N [Example 88, 4-Chloro-5-(2-cyano-4-(3,3,3-trifluoro-2,2-dimethylpropyl)phenyl)-1-ethyl-N-(((1s,4s)-1-hydroxy-4-(methylsulfonyl)cyclohexyl)methyl)-1H-pyrazole-3-carboxamide]
- inhibition at 3 µM (full-length human RORγt; [4]): 88%
- IC50 (full-length human RORγt; [2]): 130 nM
- Kd [1, 3]: 15 nM

SMILES: CCn1nc(C(=O)NC[C@H]2CC[C@H](S(C)(=O)=O)CC2)c(Cl)c1-c1ccc(CC(C)(C)C(F)(F)F)cc1F [Example 177, 4-Chloro-1-ethyl-5-(2-fluoro-4-(3,3,3-trifluoro-2,2-dimethylpropyl)phenyl)-N-(((1r,4r)-4-(methylsulfonyl)cyclohexyl)methyl)-1H-pyrazole-3-carboxamide]
- inhibition at […] (full-length human RORγt; [7]): 77%
- IC50 (full-length human RORγt; [2]): 7.2 nM
- Kd [1, 3]: 2.2 nM

SMILES: CCn1nc(C(=O)NC[C@H]2CC[C@H](S(C)(=O)=O)CN2)c(Cl)c1-c1ccc(CC(C)(C)C(F)(F)F)cc1OC(F)F (stereo in doubt) [Example 9, 4-Chloro-5-(2-(difluoromethoxy)-4-(3,3,3-trifluoro-2,2-dimethylpropyl)phenyl)-1-ethyl-N-(((2R*,5S*)-5-(methylsulfonyl)piperidin-2-yl)methyl)-1H-pyrazole-3-carboxamide hydrobromide]
- inhibition at 1 µM (full-length human RORγt; HEK-293T, 1 μM compound concentration (footnote ***), read-out: RORγt (FL) Reporter Assay A or B, % inhibition): 104%
- IC50 (full-length human RORγt; [2]): 9.1 nM
- Kd ([1]; ThermoFluor® Assay, Kd): 1.6 nM

SMILES: CCn1nc(C(=O)NC[C@H]2CC[C@H](S(N)(=O)=O)CC2)c(Cl)c1-c1ccc(C[C@H](C)C(F)(F)F)cc1OC(F)F (single isomer, unassigned) [Example 54, 4-Chloro-5-(2-(difluoromethoxy)-4-((S*)-3,3,3-trifluoro-2-methylpropyl)phenyl)-1-ethyl-N-(((1r,4S)-4-sulfamoylcyclohexyl)methyl)-1H-pyrazole-3-carboxamide]
- inhibition at […] (full-length human RORγt; HEK-293T, 0.33 μM compound concentration (footnote *****), read-out: RORγt (FL) Reporter Assay A or B, % inhibition): 102%
- IC50 (full-length human RORγt; [2]): 9.8 nM
- Kd ([1]; ThermoFluor® Assay, Kd): 0.69 nM

SMILES: CCn1nc(C(=O)NC[C@]2(O)CC[C@@H](S(C)(=O)=O)CC2)c(Cl)c1-c1ccc(C[C@H](C)C(F)(F)F)cc1OC(F)F (single isomer, unassigned) [Example 56, 4-Chloro-5-(2-(difluoromethoxy)-4-((S*)-3,3,3-trifluoro-2-methylpropyl)phenyl)-1-ethyl-N-(((1s,4R)-1-hydroxy-4-(methylsulfonyl)cyclohexyl)methyl)-1H-pyrazole-3-carboxamide]
- inhibition at […] (full-length human RORγt; HEK-293T, 0.11 μM compound concentration (footnote ********), read-out: RORγt (FL) Reporter Assay A or B, % inhibition): 94%
- IC50 (full-length human RORγt; [2]): 8.7 nM
- Kd ([1]; ThermoFluor® Assay, Kd): 1 nM

SMILES: CCn1nc(C(=O)NC[C@H]2CC[C@H](S(=O)(=O)NC(C)=O)CC2)c(Cl)c1-c1ccc(CC(C)(C)C(F)(F)F)cc1OC(F)F [Example 68, N-(((1r,4r)-4-(N-Acetylsulfamoyl)cyclohexyl)methyl)-4-chloro-5-(2-(difluoromethoxy)-4-(3,3,3-trifluoro-2,2-dimethylpropyl)phenyl)-1-ethyl-1H-pyrazole-3-carboxamide]
- RORγt (FL) Reporter Assay A or B, % inhibition (full-length human RORγt; [5]): 97* %
- IC50 (full-length human RORγt; [6]): 39 nM
- Kd [1, 3]: 0.7 nM

SMILES: CCn1nc(C(=O)NC[C@H]2CC[C@H](S(C)(=O)=O)CC2)c(C)c1-c1ccc(CCC(F)(F)F)cc1OC [Example 226, 1-Ethyl-5-(2-methoxy-4-(3,3,3-trifluoropropyl)phenyl)-4-methyl-N-(((1r,4r)-4-(methylsulfonyl)cyclohexyl)methyl)-1H-pyrazole-3-carboxamide]
- inhibition at 0.67 µM (full-length human RORγt; HEK-293T, 0.67 μM compound concentration (footnote ****), read-out: RORγt (FL) Reporter Assay A or B, % inhibition): 71%
- IC50 (full-length human RORγt; [2]): 38 nM
- Kd [1, 3]: 12 nM

SMILES: CCCn1nc(C(=O)NC[C@]2(O)CC[C@@H](S(C)(=O)=O)CC2)c(Cl)c1-c1ccc(N[C@H](C)C(F)(F)F)cc1OC [Example 31, 4-Chloro-N-(((1s,4S)-1-hydroxy-4-(methylsulfonyl)cyclohexyl)methyl)-5-(2-methoxy-4-(((R)-1,1,1-trifluoropropan-2-yl)amino)phenyl)-1-propyl-1H-pyrazole-3-carboxamide]
- inhibition at 6 µM (full-length human RORγt; HEK-293T, read-out: RORγt (FL) Reporter Assay A or B, % inhibition @ 6 μM): 105%
- IC50 (full-length human RORγt; [2]): 41 nM
- Kd [1, 3]: 7.2 nM

SMILES: CCn1nc(C(=O)NC[C@H]2CC[C@H](S(=O)(=O)NC(=O)NC)CC2)c(Cl)c1-c1ccc(CC(C)(C)C(F)(F)F)cc1OC(F)F [Example 71, 4-Chloro-5-(2-(difluoromethoxy)-4-(3,3,3-trifluoro-2,2-dimethylpropyl)phenyl)-1-ethyl-N-(((1r,4r)-4-(N-(methylcarbamoyl)sulfamoyl)cyclohexyl)methyl)-1H-pyrazole-3-carboxamide]
- RORγt (FL) Reporter Assay A or B, % inhibition (full-length human RORγt; [5]): 114* %
- IC50 (full-length human RORγt; [6]): 13 nM
- Kd [1, 3]: 0.23 nM

SMILES: CCn1nc(C(=O)NC[C@H]2CC[C@H](S(C)(=O)=O)CC2)c(Cl)c1-c1ccc(CC(C)(C)C(F)(F)F)cc1OC(F)F [Example 2, 4-Chloro-5-(2-(difluoromethoxy)-4-(3,3,3-trifluoro-2,2-dimethylpropyl)phenyl)-1-ethyl-N-(((1r,4r)-4-(methylsulfonyl)cyclohexyl)methyl)-1H-pyrazole-3-carboxamide]
- inhibition at […] (full-length human RORγt; [7]): 94%
- IC50 (full-length human RORγt; [2]): 4.4 nM
- Kd [1, 3]: 0.16 nM
